# Reference: paper PMC4376724, “Differential Phenotypic and Functional Profiles of TcCA-2 -Specific Cytotoxic CD8^+ T Cells in the Asymptomatic versus Cardiac Phase in Chagasic Patients” (PLoS ONE, 2015)
# What was measured:
# [1] = tested on: PBMCs from asymptomatic HLA-A*02:01 Chagas disease patients; experiment: HLA-A*02:01 restriction assay: peptide-pulsed K562-A2 cells as APC, IFN-γ secretion by patient PBMC; type: cell-based, human; settings: range among patients with a positive response; K562-A2 pulsed with 1 mM peptide 1 h, 30 h co-culture; K562 level subtracted
# Experimental: TAP-deficient T2 cells were used for the HLA-A*02:01 binding assays and the K562-A2 cells for the HLA-A*02:01 restriction assay. The cells were cultured in complete RPMI medium supplemented with 10% of inactivated Fetal Calf Serum (iFCS), 2 mM glutamine, and 100 U/ml penicillin. K562-A2 cells, expressing the HLA-A*02:01 molecule were cultured in the presence of […] of G-418, as previously described. The T2 and K562-A2 cells were kindly provided by Dr. Pedro Romero (University of Lausanne) and by Dr Peter Ponsaerts (University of Antwerp, with the permission of Dr. Cedrik Britten from Johanes Gutenberg-University Mainz), respectively.
# (§1) For the screening of the recognition of TcCA-2 epitopes by Chagas disease patients, 10 HLA-A*02:01 adult patients in the asymptomatic phase of the disease (IND) were enrolled. For cytotoxicity, functional activity determinations and phenotypic characterization another group of 19 HLA-A*02:01 adults Chagas disease patients and 9 healthy donors were analyzed. These patients were at the chronic stage of the disease and were considered to be at the asymptomatic phase (IND, n = 8) if there was no evidence of having cardiac or gastrointestinal disorders. Chronic Chagas cardiomyopathy patients (CCC, n = 11) were stratified into G1 to G3 stages following Kuschnir classification according to clinical criteria and radiological, electrocardiographic and echocardiography analyses. The number of patients was the one recommended by the Hospital Ethical Committee. […] The patients were enrolled in both studies (functional and phenotypic characterization, IND n = 6 and CCC n = 7) when the available number of purified PBMC (limited by the cellular number isolated from each subject) was enough for both analyses. Another four CCC patients had to be enrolled to perform the phenotypic analysis in order to reach statistical significance.
# Cytokine secretion (IL-4, IL-10, IL-6, IFN-γ, TNF-α) was determined in the supernatants of PBMC from Chagas disease patients and healthy donors, after in vitro stimulation with 1 μM of each peptide for 30 h at 37°C in RPMI supplemented with 10% iFBS as explained before. The secretion profile was determined by using a bead-based multiplex immunoassay system (Bio-Plex, Bio-Rad), following the manufacturer's instructions. The response was considered positive if an increase in the secretion of cytokines was at least three folds higher than the secretion by un-stimulated cells (basal secretion level) and at least, 4 pg/mL for IL-4, 2 pg/mL for IL-10, 15 pg/mL for IL-6 and 5 pg/mL for IFN-γ and TNF-α. The positive control consisted of 50 ng/mL Phorbol 12 myristate 13-acetate (PMA) and 500 ng/mL ionomycin (Sigma). Cytokine levels were quantified in each sample by using the Bio-Plex Manager software 4.1 (Bio-Rad). […]
# [2] = tested on: PBMC from HLA-A*02:01 Chagas disease patients and healthy donors; experiment: Cytokine secretion test (Bio-Plex multiplex immunoassay) in PBMC supernatants; type: cell-based, human; settings: 1 μM peptide, 30 h; for IFNγ / IL6 / TNFα: non-peptide control subtracted
# Experimental: as §1
# Cytokine secretion (IL-4, IL-10, IL-6, IFN-γ, TNF-α) was determined in the supernatants of PBMC from Chagas disease patients and healthy donors, after in vitro stimulation with 1 μM of each peptide for 30 h at 37°C in RPMI supplemented with 10% iFBS as explained before. The secretion profile was determined by using a bead-based multiplex immunoassay system (Bio-Plex, Bio-Rad), following the manufacturer's instructions. The response was considered positive if an increase in the secretion of cytokines was at least three folds higher than the secretion by un-stimulated cells (basal secretion level) and at least, 4 pg/mL for IL-4, 2 pg/mL for IL-10, 15 pg/mL for IL-6 and 5 pg/mL for IFN-γ and TNF-α. The positive control consisted of 50 ng/mL Phorbol 12 myristate 13-acetate (PMA) and 500 ng/mL ionomycin (Sigma). Cytokine levels were quantified in each sample by using the Bio-Plex Manager software 4.1 (Bio-Rad).
# Functional analysis of the epitope-specific CD8^+ T cells was carried out by the determination of the secretion profile of IFN-γ, TNF-α, IL-4, IL10 and IL-6 cytokines. […] CD8^+ T cells from 2 out of 11 patients responded to stimulation with peptide TcCA-2_273-281 by secreting IL-6. […] There was no secretion of IL-4 and IL-10 in PBMC after stimulation with any one of the four TcCA-2 peptides (data not shown). IFN-γ, TNF-α and IL6 cytokines secretion levels were higher in patients at the asymptomatic phase of the disease than in Chagas patients with associated cardiomyopathy.
sequence,measurement,setting,value
TVFDASRSTV [TcCA-2_442-451],INF-γ secretion range,[1],5.8 to 6.9 pg/mL
same,"Patients whose cells recognized the peptide by secreting IFN-γ, TNF-α and IL-6","[2]; PBMC of Chagas patients, positive = at least three folds non-peptide control and ≥15 pg/mL IL-6, ≥5 pg/mL IFN-γ and TNF-α",2 out of 14
same,Patients whose cells recognized the peptide by secreting TNF-α and IL-6,"[2]; PBMC of Chagas patients, same positivity criteria",2 out of 14
same,IFNγ,[2]; PBMC of patient CCC I 456,4 pg/mL
same,IL6,[2]; PBMC of patient CCC I 456,46 pg/mL
same,TNFα,[2]; PBMC of patient CCC I 456,6 pg/mL
same,IFNγ,[2]; PBMC of patient CCC I 770,-2 pg/mL
same,IL6,[2]; PBMC of patient CCC I 770,3 pg/mL
same,TNFα,[2]; PBMC of patient CCC I 770,-11 pg/mL
same,IFNγ,[2]; PBMC of patient CCC I 861,0 pg/mL
same,IL6,[2]; PBMC of patient CCC I 861,-4 pg/mL
same,TNFα,[2]; PBMC of patient CCC I 861,-3 pg/mL
same,IFNγ,[2]; PBMC of patient CCC I 884,0 pg/mL
same,IL6,[2]; PBMC of patient CCC I 884,0 pg/mL
same,TNFα,[2]; PBMC of patient CCC I 884,0 pg/mL
same,IFNγ,[2]; PBMC of patient CCC II 142,2 pg/mL
same,IL6,[2]; PBMC of patient CCC II 142,-3 pg/mL
same,TNFα,[2]; PBMC of patient CCC II 142,-20 pg/mL
same,IFNγ,[2]; PBMC of patient CCC III 509,0 pg/mL
same,IL6,[2]; PBMC of patient CCC III 509,-4 pg/mL
same,TNFα,[2]; PBMC of patient CCC III 509,-5 pg/mL
same,IFNγ,[2]; PBMC of patient CCC III 797,3 pg/mL
same,IL6,[2]; PBMC of patient CCC III 797,31 pg/mL
same,TNFα,[2]; PBMC of patient CCC III 797,7 pg/mL
same,IFNγ,[2]; PBMC of patient IND 265,204 pg/mL
same,IL6,[2]; PBMC of patient IND 265,1641 pg/mL
same,TNFα,[2]; PBMC of patient IND 265,160 pg/mL
same,IFNγ,[2]; PBMC of patient IND 283,12 pg/mL
same,IL6,[2]; PBMC of patient IND 283,80 pg/mL
same,TNFα,[2]; PBMC of patient IND 283,35 pg/mL
same,IFNγ,[2]; PBMC of patient IND 365,0 pg/mL
same,IL6,[2]; PBMC of patient IND 365,7 pg/mL
same,TNFα,[2]; PBMC of patient IND 365,15 pg/mL
same,IFNγ,[2]; PBMC of patient IND 388,1 pg/mL
same,IL6,[2]; PBMC of patient IND 388,21 pg/mL
same,TNFα,[2]; PBMC of patient IND 388,-10 pg/mL
same,IFNγ,[2]; PBMC of patient IND 510,0 pg/mL
same,IL6,[2]; PBMC of patient IND 510,1 pg/mL
same,TNFα,[2]; PBMC of patient IND 510,1 pg/mL
same,IFNγ,[2]; PBMC of patient IND 535,0 pg/mL
same,IL6,[2]; PBMC of patient IND 535,-6 pg/mL
same,TNFα,[2]; PBMC of patient IND 535,-1 pg/mL
same,IFNγ,[2]; PBMC of patient IND 917,-1 pg/mL
same,IL6,[2]; PBMC of patient IND 917,-13 pg/mL
same,TNFα,[2]; PBMC of patient IND 917,-4 pg/mL
same,IFNγ,[2]; PBMC of subject HD 001,4 pg/mL
same,IL6,[2]; PBMC of subject HD 001,18 pg/mL
same,TNFα,[2]; PBMC of subject HD 001,-6 pg/mL
same,IFNγ,[2]; PBMC of subject HD 004,0 pg/mL
same,IL6,[2]; PBMC of subject HD 004,-15 pg/mL
same,TNFα,[2]; PBMC of subject HD 004,-1 pg/mL
same,IFNγ,[2]; PBMC of subject HD 005,5 pg/mL
same,IL6,[2]; PBMC of subject HD 005,16 pg/mL
same,TNFα,[2]; PBMC of subject HD 005,-1 pg/mL
same,IFNγ,[2]; PBMC of subject HD 006,2 pg/mL
same,IL6,[2]; PBMC of subject HD 006,-2 pg/mL
same,TNFα,[2]; PBMC of subject HD 006,2 pg/mL
same,IFNγ,[2]; PBMC of subject HD 008,1 pg/mL
same,IL6,[2]; PBMC of subject HD 008,31 pg/mL
same,TNFα,[2]; PBMC of subject HD 008,15 pg/mL
same,IFNγ,[2]; PBMC of subject HD 011,8 pg/mL
same,IL6,[2]; PBMC of subject HD 011,54 pg/mL
same,TNFα,[2]; PBMC of subject HD 011,10 pg/mL
same,IFNγ,[2]; PBMC of subject HD 340,2 pg/mL
same,IL6,[2]; PBMC of subject HD 340,11 pg/mL
same,TNFα,[2]; PBMC of subject HD 340,3 pg/mL
same,IFNγ,[2]; PBMC of subject HD 664,-3 pg/mL
same,IL6,[2]; PBMC of subject HD 664,0 pg/mL
same,TNFα,[2]; PBMC of subject HD 664,0 pg/mL
